{"source": "paper PMC6070540", "about": "“SUMO-mediated regulation of NLRP3 modulates inflammasome activity” (Nature Communications, 2018)", "key": {"FLAG-tagged human NLRP3": {"test_system": "FLAG-tagged human NLRP3", "assay": "Sumoylation of NLRP3 in HEK293T cells (denaturing immunoprecipitation, immunoblot)", "format": "cell-based", "details": "for sumoylation of mutant NLRP3: transfected HEK293T cells, compared to WT NLRP3", "method": "(§1) For sumoylation and ubiquitination assays 2 × 10^6 HEK293T cells were plated in 10 cm dishes and transfected with a total of 7.5 μg of DNA the following day. A modified version of “Detection of Sumoylated Proteins by Immunoprecipitation Analysis”[61] was used. Briefly, 16 h post-transfection cells were lysed in SDS lysis buffer (1% SDS, 0.15 M Tris-HCl pH 6.8 and 30% Glycerol). Lysates were boiled for 5 min and diluted 10 × in PBS-T (PBS and 1% Triton-X 100) supplemented with PR-619 (50 μM) and complete protease inhibitors. Cell lysates were sonicated for 20 s then clarified at 4 °C at 13,000 rpm for 10 min. A 20 μl of α-HA beads (SIGMA) or α-FLAG M2 beads (SIGMA) was rotated with cleared protein lysates at 4 °C for 4 h. Furthermore, 4× washes in PBS-T, supplemented with PR-619 (20 μM) and complete protease inhibitors, were performed, and samples eluted by boiling in 60 μl 1× SDS loading dye. Samples were separated by SDS-PAGE using Bolt 8% Bis-Tris plus 1.0 mm 12 well precast protein gels (Life Technologies) in MOPS buffer. Where necessary, the modification smears were quantified using Image Lab Software (Bio-Rad) and normalised to total immunoprecipitated NLRP3 in biological triplicate."}, "[1]": {"test_system": "endogenous NLRP3 and SUMO-2/-3", "assay": "Proximity ligation assay (PLA) NLRP3/SUMO-2/-3", "format": "cell-based, murine", "details": "immortalised WT BMDMs; LPS 4 h followed by 10 µM nigericin 30 min or 5 mM ATP 20 min (ATP n = 1)", "method": "(§2) For immunofluorescence staining, 1.5 × 10^5 cells were plated on 13 mm glass cover slips (VWR). Cells were either left untreated, or treated with LPS (500 ng/ml) for 4 h followed or not by 10 µM nigericin for 30 min or 5 mM ATP for 20 min, before being fixed in 4% paraformaldehyde for 10 min. Following 10 min permeabilization with PBS containing 0.5% Triton X-100, cells were incubated for 1 h in 5% BSA in PBS. Respective primary antibodies were then added as follows: mouse α-NLRP3 (AG-20B-0014, AdipoGen, 1:1000), rabbit α-SUMO-2/3 (4971, Cell Signalling, 1:1000), rabbit α-ASC (AG-25B-0006, AdipoGen, 1:200) and rabbit α-MAPL (ab84067, Abcam, 1:1000). Alexa Fluor 633-conjugated Phalloidin (Invitrogen, 1:500) was used to stain actin filaments. Secondary fluorescent conjugated antibodies were then added as follows: 1:1000 CF488A-donkey α-mouse and 1:1000 CF488-donkey α-rabbit. Nuclei were stained with DAPI (Invitrogen). Cells were visualised by confocal microscopy (objective× 40, Zeiss LSM710). PLA was performed according to the manufacturer’s protocol using the Duolink Detection Kit (Cambridge BioScience Ltd). […] The number of fluorescent spots in 50 cells were quantified using ImageJ and data analysed using two-way ANOVA multiple comparison test or two-tailed Student’s t-test using Prism 7, Graphpad."}, "FLAG-NLRP3": {"test_system": "FLAG-NLRP3", "assay": "Ubiquitylation of NLRP3 in HEK293T cells (immunoprecipitation, immunoblot)", "format": "cell-based, human", "method": "as §1"}, "NLRP3, SUMO-2/-3, MAPL": {"test_system": "NLRP3, SUMO-2/-3, MAPL", "assay": "Immunofluorescence staining of NLRP3, SUMO-2/-3, MAPL", "format": "cell-based, murine", "details": "BMDMs", "method": "as §2"}, "SUMO-2/-3 proteome": {"test_system": "SUMO-2/-3 proteome", "assay": "Global sumoylation (RanGAP1, total SUMO-2/-3 proteome)", "format": "cell-based, human", "details": "HEK293T cells, nigericin", "method": "as §1"}, "NLRP3 and MAPL": {"test_system": "NLRP3 and MAPL", "assay": "PLA NLRP3/MAPL", "format": "cell-based, murine", "details": "WT BMDMs; untreated, LPS 4 h, or LPS 4 h followed by 10 µM nigericin 30 min; biological triplicate", "method": "as §2"}, "NLRP3 and ASC": {"test_system": "NLRP3 and ASC", "assay": "PLA NLRP3/ASC (inflammasome formation)", "format": "cell-based, murine", "details": "WT BMDMs; LPS 4 h followed by 10 µM nigericin 30 min or 5 mM ATP 20 min (ATP n = 1)", "method": "as §2"}, "caspase-1": {"test_system": "caspase-1", "assay": "Caspase-1 cleavage assay in 293T-ASC-caspase-1 cells", "format": "cell-based, human", "details": "transfected 293T-ASC-caspase-1 cells; p20 immunoblot", "procedure": "For caspase-1 cleavage assays 1 × 10^5 HEK293T-ASC-caspase-1 cells were plated in 24-well plates and transfected with a total of 600 ng of DNA the following day. Cells were lysed in 80 μl of DISC lysis buffer (20 mM Tris-HCL pH 7.5, 150 mM NaCl, 2 mM EDTA, 1% Triton X-100, 10% Glycerol) supplemented with 2% SDS. To shred genomic DNA cell lysates were passed through 0.8 ml columns (Pierce). Lysates were quantified using BCA protein assay kit (Pierce) and 6× SDS loading dye added. Samples were boiled for 5 min before separating by SDS-PAGE using NuPAGE Novex 4–12% Bis-Tris 1.0 mm 20 well precast midi protein gels (Life Technologies) in MES buffer. Caspase-1 p20 antibody (Bally-1, human, Adipogen) was used to detect total and cleaved caspase-1 in cell lysate."}}, "data": [{"molecule": "N#CSc1cc(SC#N)c(N)nc1N", "note": "[PR-619]", "values": [{"measurement": "appearance of sumoylated NLRP3", "setting": "FLAG-tagged human NLRP3; HEK293T cells transfected with FLAG-tagged human NLRP3, endogenous SUMO-2/-3, immunoblot, in the presence vs absence of compound", "value": "significantly enhanced the appearance of sumoylated NLPR3"}]}, {"molecule": "CO[C@@H]1C[C@@H](C[C@H]2CC[C@H](C)[C@H]([C@@H](C)C(=O)O)O2)O[C@]2(O[C@](C)([C@H]3CC[C@@](C)([C@@H]4O[C@@H]([C@H]5O[C@@](O)(CO)[C@H](C)C[C@@H]5C)C[C@@H]4C)O3)C[C@H]2C)[C@@H]1C", "note": "[nigericin]", "values": [{"measurement": "NLRP3-SUMO-2/-3 PLA signals upon inflammasome activation", "setting": "[1]", "value": "significantly reduced proximity labelling of NLRP3 and SUMO-2/-3"}, {"measurement": "ubiquitylated NLRP3 after stimulation", "setting": "FLAG-NLRP3; HEK293T cells expressing FLAG-NLRP3, nigericin time course, three independent experiments", "value": "less ubiquitylated"}, {"measurement": "general expression of NLRP3 and SUMO-2/-3", "setting": "NLRP3, SUMO-2/-3, MAPL; LPS and nigericin, immunofluorescence", "value": "unaffected"}, {"measurement": "MAPL staining", "setting": "NLRP3, SUMO-2/-3, MAPL; nigericin, conventional immunofluorescence", "value": "caused a decrease in MAPL staining"}, {"measurement": "sumoylation of RanGAP1", "setting": "SUMO-2/-3 proteome; selectivity control", "value": "remained sumoylated"}, {"measurement": "overall smearing pattern of total SUMO-2/-3 proteome", "setting": "SUMO-2/-3 proteome; total cell lysates", "value": "no apparent change"}, {"measurement": "MAPL/NLRP3 proximity signals", "setting": "NLRP3 and MAPL", "value": "almost completely abolished MAPL/NLRP3 proximity signals"}, {"measurement": "sumoylated NLRP3 after stimulation", "setting": "FLAG-tagged human NLRP3; HEK293T cells expressing FLAG-NLRP3, nigericin time course, normalised to total immunoprecipitated NLRP3, three independent experiments", "value": "induced notable reduction of sumoylated NLRP3"}, {"measurement": "NLRP3-ASC inflammasome complexes (PLA)", "setting": "NLRP3 and ASC", "value": "specifically formed upon treatment with LPS and nigericin or ATP"}]}, {"molecule": "NLRP3^E690K: reported CAPS disease mutant", "values": [{"measurement": "sumoylation of mutant NLRP3", "setting": "FLAG-tagged human NLRP3", "value": "did not reduce the overall sumoylation smearing pattern"}]}, {"molecule": "Nc1ncnc2c1ncn2[C@@H]1O[C@H](COP(=O)(O)OP(=O)(O)OP(=O)(O)O)[C@@H](O)[C@H]1O", "note": "[ATP]", "values": [{"measurement": "NLRP3-SUMO-2/-3 PLA signals upon inflammasome activation", "setting": "[1]", "value": "significantly reduced proximity labelling of NLRP3 and SUMO-2/-3"}, {"measurement": "NLRP3-ASC inflammasome complexes (PLA)", "setting": "NLRP3 and ASC", "value": "specifically formed upon treatment with LPS and nigericin or ATP"}]}, {"molecule": "NLRP3^E692K: reported CAPS disease mutant", "values": [{"measurement": "sumoylation of mutant NLRP3", "setting": "FLAG-tagged human NLRP3", "value": "did not reduce the overall sumoylation smearing pattern"}]}, {"molecule": "NLRP3^K689R: full length NLRP3 with K689 mutated to R", "values": [{"measurement": "ability of NLRP3 to activate caspase-1", "setting": "caspase-1", "value": "hyperactive in driving caspase-1 cleavage"}, {"measurement": "ubiquitylation of mutant NLRP3", "setting": "FLAG-NLRP3; transfected HEK293T cells, compared to WT NLRP3", "value": "no effect"}, {"measurement": "sumoylation of mutant NLRP3", "setting": "FLAG-tagged human NLRP3", "value": "no effect"}]}, {"molecule": "WT MAPL: mitochondrial-anchored protein ligase, SUMO E3 ligase (protein, left off: 2xHA, end not stated, kept | 2xSTREP, end not stated, state not stated) MESGGRPSLCQFILLGTTSVVTAALYSVYRQKARVSQELKGAKKVHLGEDLKSILSEAPGKCVPYAVIEGAVRSVKETLNSQFVENCKGVIQRLTLQEHKMVWNRTTHLWNDCSKIIHQRTNTVPFDLVPHEDGVDVAVRVLKPLDSVDLGLETVYEKFHPSIQSFTDVIGHYISGERPKGIQETEEMLKVGATLTGVGELVLDNNSVRLQPPKQGMQYYLSSQDFDSLLQRQESSVRLWKVLALVFGFATCATLFFILRKQYLQRQERLRLKQMQEEFQEHEAQLLSRAKPEDRESLKSACVVCLSSFKSCVFLECGHVCSCTECYRALPEPKKCPICRQAITRVIPLYNS", "values": [{"measurement": "sumoylation of NLRP3 by co-expressed MAPL", "setting": "FLAG-tagged human NLRP3; FLAG-NLRP3 purified under denaturing conditions, HEK293T, three independent experiments", "value": "sumoylated NLRP3"}]}]}
